ChEMBL document CHEMBL1201862, “PubChem BioAssay data set” (2004)
Calls of active or inactive are those of the source.

Tests used:
[1] = viability of uninfected HEp-2 cells – cell-based, HTS, cytotoxicity control for RSV inhibitor project, dose response (AID 2410); assay type: functional; details: human respiratory syncytial virus
Cytochrome P450 2D6 = Cytochrome P450 2D6 (Homo sapiens, UniProt P10635);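 note: CYP2D6 member of a cytochrome P450 panel assay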
[2] = Trypanosoma cruzi growth suppression in host cells – NIH3T3 host cells, beta-gal luminescence, confirmation (AID 2044); assay type: functional, cell-based;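 note: intracellular parasites grown in NIH/3T3 mouse fibroblasts as host cells; luminescent beta-galactosidase reporter signal from transgenic T. cruzi replicating inside host cells; inhibitors lower the luminescence signal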
[3] = NIH3T3 cell viability loss – ATP luminescence, mouse fibroblasts, counter-screen, dose response (AID 2010); assay type: functional, cell-based;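 note: cells exposed to compound for about 90 hours before reading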
Cytochrome P450 1A2 = target: T1, Cytochrome P450 1A2 (Homo sapiens, UniProt P05177);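 note: PubChem cytochrome P450 panel assay, CYP1A2 panel member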
T1 sequence (P05177 whole entry): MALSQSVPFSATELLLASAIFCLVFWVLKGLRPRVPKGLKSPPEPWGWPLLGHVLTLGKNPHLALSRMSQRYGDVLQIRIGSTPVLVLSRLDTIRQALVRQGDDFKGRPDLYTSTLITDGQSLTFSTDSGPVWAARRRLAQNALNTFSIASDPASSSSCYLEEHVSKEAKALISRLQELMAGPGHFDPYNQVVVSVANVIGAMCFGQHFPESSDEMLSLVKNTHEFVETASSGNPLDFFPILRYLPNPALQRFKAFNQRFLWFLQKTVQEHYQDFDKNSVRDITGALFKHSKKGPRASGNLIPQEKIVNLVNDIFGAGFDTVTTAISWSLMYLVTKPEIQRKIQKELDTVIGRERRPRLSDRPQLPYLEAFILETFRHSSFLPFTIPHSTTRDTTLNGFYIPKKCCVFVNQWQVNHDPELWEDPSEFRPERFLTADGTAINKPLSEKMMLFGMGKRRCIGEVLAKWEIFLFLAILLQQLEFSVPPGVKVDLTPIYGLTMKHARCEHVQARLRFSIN

Cytochrome P450 2C19 = Cytochrome P450 2C19 (Homo sapiens, UniProt P33261); test: Cytochrome panel assay with activity outcomes. Panel member name: p450-cyp2c19 Compounds with AC50 equal or less than 10 uM are considered active; assay type: functional; details: read-out: AC50
[4] = target: T2, Heat shock factor protein 1 (Mus musculus, UniProt P38532); test: decrease of HSF1-responsive luciferase luminescence – cell-based, NIH3T3, dose retest, confirmation (AID 2382); assay type: functional;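 note: NIH3T3 fibroblasts with HSF1-driven luciferase reporter stressed by proteasome inhibitor MG132; luminescence from HSF1-driven luciferase expression after 8 hours of MG132 stress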
T2 sequence (P38532 whole entry): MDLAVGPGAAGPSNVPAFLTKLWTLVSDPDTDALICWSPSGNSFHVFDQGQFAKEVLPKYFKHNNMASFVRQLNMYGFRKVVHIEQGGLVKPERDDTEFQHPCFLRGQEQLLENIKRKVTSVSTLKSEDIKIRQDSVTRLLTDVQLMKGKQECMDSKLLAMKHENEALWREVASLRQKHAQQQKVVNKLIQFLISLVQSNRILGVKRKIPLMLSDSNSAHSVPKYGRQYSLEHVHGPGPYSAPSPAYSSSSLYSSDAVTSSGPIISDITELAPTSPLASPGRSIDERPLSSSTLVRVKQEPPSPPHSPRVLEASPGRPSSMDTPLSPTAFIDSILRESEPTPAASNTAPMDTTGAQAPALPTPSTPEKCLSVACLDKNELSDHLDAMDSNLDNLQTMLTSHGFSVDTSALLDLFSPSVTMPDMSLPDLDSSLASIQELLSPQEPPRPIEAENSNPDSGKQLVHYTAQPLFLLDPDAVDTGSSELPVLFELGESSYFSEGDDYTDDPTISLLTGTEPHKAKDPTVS

INS1 = test: INS-1E survival protection against cytokine death – cell-based, luminescence, retest, dose response (AID 449756); assay type: functional; details: Rattus norvegicus;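 note: cell death triggered by IL-1 beta plus TNF-alpha plus IFN-gamma mixture; protective hits raise ATP signal compared with cytokine alone wells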
Cytochrome P450 3A4 = Cytochrome P450 3A4 (Homo sapiens, UniProt P08684);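 note: CYP3A4 tested as one member of a cytochrome P450 panel screen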
Cytochrome P450 2C9 = Cytochrome P450 2C9 (Homo sapiens, UniProt P11712)
[5] = target: T2, Heat shock factor protein 1; test: enhancement of HSF1-driven luciferase signal – cell-based, NIH3T3, luminescence, dose retest, confirmation (AID 435004); assay type: functional;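 note: stress induced by proteasome inhibitor MG132 added 30 min after compound; luciferase reporter driven by HSF1 response element in NIH3T3 cells; actives raise luminescence as potentiators of the MG132 stress response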

Cytochrome P450 2D6, sequence (P10635 whole entry): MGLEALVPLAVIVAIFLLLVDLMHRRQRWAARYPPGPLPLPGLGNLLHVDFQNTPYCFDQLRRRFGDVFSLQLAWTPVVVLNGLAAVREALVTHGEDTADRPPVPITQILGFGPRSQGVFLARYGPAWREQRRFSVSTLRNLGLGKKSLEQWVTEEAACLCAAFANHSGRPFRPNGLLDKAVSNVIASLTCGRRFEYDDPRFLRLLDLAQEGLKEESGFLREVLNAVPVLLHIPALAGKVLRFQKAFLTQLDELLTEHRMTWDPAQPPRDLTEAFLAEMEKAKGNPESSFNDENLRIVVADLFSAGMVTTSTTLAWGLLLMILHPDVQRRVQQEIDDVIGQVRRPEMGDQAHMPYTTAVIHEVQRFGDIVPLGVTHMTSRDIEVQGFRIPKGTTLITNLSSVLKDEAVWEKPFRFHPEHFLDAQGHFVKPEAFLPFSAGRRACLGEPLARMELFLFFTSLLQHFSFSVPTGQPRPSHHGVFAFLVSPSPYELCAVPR
Cytochrome P450 2C19, sequence (P33261 whole entry): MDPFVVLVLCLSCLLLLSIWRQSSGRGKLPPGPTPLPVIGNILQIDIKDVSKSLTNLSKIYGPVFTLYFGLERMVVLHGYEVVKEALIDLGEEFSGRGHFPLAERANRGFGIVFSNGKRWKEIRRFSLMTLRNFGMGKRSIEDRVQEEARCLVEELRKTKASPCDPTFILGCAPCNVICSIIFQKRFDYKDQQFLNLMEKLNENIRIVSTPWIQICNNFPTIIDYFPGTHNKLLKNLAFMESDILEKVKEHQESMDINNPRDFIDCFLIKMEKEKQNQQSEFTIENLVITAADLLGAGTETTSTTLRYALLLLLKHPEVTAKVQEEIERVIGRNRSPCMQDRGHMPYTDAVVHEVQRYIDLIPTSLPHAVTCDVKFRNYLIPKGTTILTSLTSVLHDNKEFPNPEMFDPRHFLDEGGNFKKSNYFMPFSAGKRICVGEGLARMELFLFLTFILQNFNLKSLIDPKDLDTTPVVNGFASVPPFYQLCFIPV
Cytochrome P450 3A4, sequence (P08684 whole entry): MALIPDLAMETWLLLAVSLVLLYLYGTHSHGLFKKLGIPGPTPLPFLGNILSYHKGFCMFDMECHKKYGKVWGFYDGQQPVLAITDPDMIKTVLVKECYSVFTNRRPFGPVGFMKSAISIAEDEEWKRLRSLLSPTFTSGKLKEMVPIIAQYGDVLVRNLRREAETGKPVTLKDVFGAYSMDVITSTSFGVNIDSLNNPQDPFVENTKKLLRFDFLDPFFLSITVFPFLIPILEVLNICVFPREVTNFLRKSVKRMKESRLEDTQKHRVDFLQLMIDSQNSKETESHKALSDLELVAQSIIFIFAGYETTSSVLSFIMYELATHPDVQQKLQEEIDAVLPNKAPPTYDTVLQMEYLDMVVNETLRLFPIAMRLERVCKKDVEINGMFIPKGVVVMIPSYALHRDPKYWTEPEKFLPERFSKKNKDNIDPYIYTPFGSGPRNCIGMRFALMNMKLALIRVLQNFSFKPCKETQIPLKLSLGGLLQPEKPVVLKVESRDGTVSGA
Cytochrome P450 2C9, sequence (P11712 whole entry): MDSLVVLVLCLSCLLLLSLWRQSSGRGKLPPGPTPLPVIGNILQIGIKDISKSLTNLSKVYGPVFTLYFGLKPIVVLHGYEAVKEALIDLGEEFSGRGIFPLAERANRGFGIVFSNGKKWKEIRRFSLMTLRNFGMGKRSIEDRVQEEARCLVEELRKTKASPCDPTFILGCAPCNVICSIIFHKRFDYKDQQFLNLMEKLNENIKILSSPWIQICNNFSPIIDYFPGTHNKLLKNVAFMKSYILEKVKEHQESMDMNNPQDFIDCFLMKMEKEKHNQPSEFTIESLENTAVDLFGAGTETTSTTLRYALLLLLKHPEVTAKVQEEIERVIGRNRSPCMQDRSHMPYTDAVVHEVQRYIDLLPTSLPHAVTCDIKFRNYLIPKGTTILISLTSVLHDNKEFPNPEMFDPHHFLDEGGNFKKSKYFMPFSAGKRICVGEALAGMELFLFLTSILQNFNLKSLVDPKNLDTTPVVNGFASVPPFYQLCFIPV

Row | AC50 (Cytochrome P450 2D6) | Structure (SMILES) | CC50 [1] | other results
1 |  | Brc1ccc(-c2ncc3ccccn23)cc1 | 29.9 µM (active) | 
2 |  | CSc1nnc(C)c(/C=C/Nc2ccc(Cl)cc2)n1 | > 50 µM (active) | 
3 |  | COc1c(C)cc(Br)cc1C(=O)Nc1ccccc1N1CCN(C(=O)c2ccccc2)CC1 | 31.5 µM (active) | EC50 [2]: 2.52 µM (active); EC50 [3]: > 60 µM (not active)
4 | 25.1 µM (inconclusive) | CCCC[C@@H]1C[C@H]1C(NC(=O)c1ccco1)c1ccc(C(=O)OC)cc1 (stereo partly specified) |  | 
5 | 20 µM (inconclusive) | C#CCCCCCCCCCCCCCCCC(=O)O |  | AC50 (Cytochrome P450 2C19): 25.1 µM (inconclusive)
6 | 28.2 µM (inconclusive) | CCC1(C)CC(CCNS(=O)(=O)c2ccc(C)cc2)(c2ccc(C)cc2)CCO1 (stereo unspecified) |  | 
7 |  | CC(C)c1nc(SCc2c(F)cccc2Cl)c2c(=O)n(C)c(=O)n(C)c2n1 | 7.44 µM (active) | EC50 [4]: > 195 µM (not active)
8 |  | C[C@]12CC[C@@H]3c4ccc(O)cc4CC[C@H]3[C@@H]1CCC2=O [ESTRONE] | 33 µM (active) | 
9 | 6.31 µM (inconclusive) | Cc1cccc(C)c1NC(=O)/C(C#N)=C/c1cccs1 |  | 
10 |  | O=C(Nc1ccc(C(=O)Nc2ccccc2Cl)cc1)c1cccnc1 |  | AC50 (INS1): 1.06 µM (active)
11 |  | Cc1cccc(-c2nc(C#N)c(NCc3ccco3)o2)c1 | 42.9 µM (active) | 
12 |  | Cc1cc(Cl)ccc1Oc1cccc(C(=O)/C(C#N)=C/N(C)C)c1 | 29.1 µM (active) | 
13 |  | O=C(COC(=O)c1cn(-c2ccccc2)nc1-c1ccccc1)c1cccc([N+](=O)[O-])c1 |  | AC50 (INS1): 4.4 µM (active)
14 |  | O=NN(CCc1ccncc1)c1ccc(OCc2ccccc2)cc1 |  | AC50 (INS1): 6.05 µM (active)
15 | 20 µM (inconclusive) | CN(Cc1ccco1)c1ncncc1-c1ccccc1C(F)(F)F |  | AC50 (Cytochrome P450 1A2): 12.6 µM (inconclusive)
16 | 15.8 µM (inconclusive) | CCn1c(SCc2cccc(C)c2)nnc1-c1ccccc1 |  | AC50 (Cytochrome P450 3A4): 3.16 µM (inconclusive); AC50 (Cytochrome P450 2C9): 35.5 µM (inconclusive)
17 | 2.24 µM (inconclusive) | O=C1NCC2=C1C(c1ccc(Br)cc1)Nc1ccccc1N2 (stereo unspecified) |  | AC50 (Cytochrome P450 3A4): 25.1 µM (inconclusive); EC50 [5]: > 260 µM (inactive)
18 |  | CC(=O)c1cccc(Nc2nc(-c3sc(C)nc3C)cs2)c1 | > 50 µM (active) | 
19 | 25.1 µM (inconclusive) | O=C(c1ccco1)N1CCC2(CC1)CCN(c1ccccc1)CC2 |  | 
20 |  | Fc1ccc(Cn2nnnc2CN2CCC(n3nnc4cc(C(F)(F)F)ccc43)CC2)cc1 | 15 µM (active) | 
21 | 4.47 µM (inconclusive) | C=CCNC(=O)/C(=C\C=C\c1ccccc1)NC(=O)c1ccc(OCCCC)cc1 |  | 
22 |  | C=C1C[C@H]2[C@@H]3C=C(C)C4=CC(=O)CC[C@]4(C)[C@H]3CC[C@]2(C)[C@@]1(OC(C)=O)C(C)=O [MELENGESTROL ACETATE] | 26.5 µM (active) | 
23 |  | FC(F)(F)c1cnc(NN=C(S)Nc2ccc(Cl)cc2)c(Cl)c1 |  | AC50 (INS1): 3.44 µM (active)

Row | Structure (SMILES) | AC50 (Cytochrome P450 2D6) | CC50 [1] | other results
24 | Cc1ccc(S(=O)(=O)N[C@@H](CCCCN)C(=O)CCl)cc1 | 25.1 µM (inconclusive) |  | 
25 | CCN(CCCl)Cc1ccccc1Br | 12.6 µM (inconclusive) |  | AC50 (Cytochrome P450 1A2): 15.8 µM (inconclusive); AC50 (Cytochrome P450 2C19): 39.8 µM (inconclusive)
